What is called EC50 is the concentration needed to bring the measured effect to its halfway point.

Here are results for 1 molecule from patent US20250320190A1, “Novel Inhibitors of Leucine Carboxyl Methyltransferase-1 (LCMT-1) and Methods of Use Thereof” (Temple University-Of The Commonwealth System of Higher …, priority 2024, published 2025).

“Also recorded” adds a separate entry of the source.

One data set concerns HEK-293 cells. Description: Cytotoxicity assay (calcein-AM). The format is cell-based. The conditions noted are these: Homo sapiens, HEK293; HEK-293; 48 hours; read-out: Log [μM] EC50 (converted). On the procedure:
(§1) HS-5, HEK-293, MCF7, MDA-MB-231 and Rosi cells were seeded in 96-well optical bottom tissue culture plates (Corning, New York) at a density of 2.5×10^3 cells/well. After 24 hours, the media were changed to media containing LB-100 (Cayman Chemical Company, Ann Arbor, Michigan) or Compound 2 at various concentrations (50-0.31 μM). Control cells were given fresh media. After 48 hours the media were aspirated and plates were washed with warmed Dulbecco's phosphate-buffered saline (DPBS) with calcium and magnesium (Sigma-Aldrich, catalog #D1283). Cells were stained with 3 μM calcein-AM (AAT Bioquest, Pleasanton, California, catalog #22002) in DPBS for 30 minutes in the dark at 37° C. Plates were immediately read with a Biotek fluorescent plate reader (excitation 485 nm, emission 520 nm). The cytotoxicity assays were performed at least three times, each time with six replicates per condition.

Another data set has as its system HS-5 cells. Briefly: Cytotoxicity assay (calcein-AM). Type of data set: cell-based. The conditions noted are these: HS-5, 48 hours. The method, then:
as §1

For the next data set, the system named is Rosi cells. Briefly: Cytotoxicity assay (calcein-AM). The following applies: Homo sapiens; Rosi; 48 hours; read-out: Log [μM] EC50 (converted). Type of data set: cell-based, human. On the procedure: as §1, with “After 24 hours, the media were changed to media containing LB-100 (Cayman Chemical Company, Ann Arbor, Michigan) or Compound 2 at various concentrations (50-0.31 μM).” left out

For data set [1], the system named is MDA-MB-231 cells transfected with the LCMT-1 expression vector. Briefly: Cytotoxicity assay in LCMT-1-transfected cells. Type of data set: cell-based, human. The following applies: MDA-MB-231 transfected with LCMT-1 vector. On the procedure: MDA-MB-231 cells were also transfected with the LCMT-1 expression vector using Lipofectamine 3000 transfection reagent (Thermo Fisher Scientific, Waltham, Massachusetts) according to the manufacturer's transfection protocol for MDA-MB-231 cells. After 5 hours the medium was changed. The cells were split 1:100 the following day, and 2 days after transfection, selection with G418 sulfate (Mediatech, Herndon, Virginia) at […] for 2 weeks commenced to develop stably transfected cells. After the selection process, cells were used in Compound 2 cytotoxicity assays as previously described.

Another data set has as its system Jurkat cells. Briefly: Radiosensitization assay (Ghost Dye 710 flow cytometry). Type of data set: cell-based, human. The conditions noted are these: 10 Grays. The method, then:
(§2) Jurkat and THP-1 cells were seeded in 6-well plates as described. After 24 hours LCMT-li was added at various concentrations as described. After 3 hours, cells were irradiated at 10 Grays. After 24 hours, cell viability was assessed with Ghost Dye™ 710 staining and flow cytometry as described.
(In general: A flow cytometer gives signals particle by particle.)

In the next data set the test system is THP-1 cells. Described as above. Type of data set: cell-based, human. The following applies: 10 Grays. On the procedure: as §2
The test system of the next data set is SCC-15 cells. Briefly: Cell cycle analysis (BrdU) with and without irradiation. Type of data set: cell-based, human. The conditions noted are these: in the presence of irradiation. On the procedure: (§3) Cells were treated with LCMT-li, radiotherapy or both as described for Annexin V assays. After 24 hours, cells were labeled with 50 μM bromodeoxyuridine (BrdU, BioGems, Westlake Village, California, catalog #5911439) for 4 hours. Cells were lifted with 0.25% trypsin, 2.21 mM ethylenediaminetetraacetic acid (EDTA) (Corning catalog #25-053-CI) after 4 hours and fixed with 70% ethanol overnight at −20° C. Cells were pelleted and permeabilized with 1 M HCl with 0.1% Triton X-100 for one minute. Cells were pelleted and cellular DNA was denatured with 2 M HCl. After neutralization with 1 M Tris, pH 8.5, cells were labeled with FITC-anti-BrdU (Biolegend, catalog #364104, 5 μL/100 μL cell suspension) and 7-aminoactinomycin-D (7-AAD, Biolegend, catalog #420404, 1 μL/100 μL cell suspension). Cells were washed with PBS with 10% FBS, and resuspended in PBS with 0.1% Triton X-100. Cells were analyzed with flow cytometry. Cell cycle analyses were performed twice with 12 replicates, 104 cells/replicate.

For the next data set, the system named is SCC-25 cells. The data set is described as above. The format is cell-based, human. On the procedure: as §3
For the next data set, the system named is UM-SCC-12 cells. The data set is described as above. Type of data set: cell-based, human. The conditions noted are these: LCMT-li/irradiation combination vs irradiation alone. The method, then:
as §3

The next data set deals with UM-SCC-14a cells. The description is as above. The format is cell-based, human. The conditions noted are these: combination vs irradiation alone, listed as LCMT-li. On the procedure: as §3
In the next data set the test system is UM-SCC-49 cells. The description is as above. The following applies: combination vs irradiation alone. The format is cell-based, human. The method, then: as §3
The next data set has as its system UM-SCC-69 cells. Described as above. The format is cell-based, human. On the procedure:
as §3

For `COC(=O)c1c(NC(=O)c2ccccc2C)sc(C(=O)Nc2cccc(C)c2)c1C` [Compound 2, methyl 4-methyl-2-[(2-methylbenzoyl)amino]-5-[[(3-methylphenyl)amino]carbonyl]-3-thiophenecarboxylate], the EC50 is 4.68 µM in the data set on HEK-293 cells; 8.71 µM with HS-5 cells (HS5, read-out: Log [μM] EC50 (converted)); 3.16 µM in the data set with Rosi cells. The “concentration at which cytotoxicity was significant” value with HS-5 cells was 20 µM. Besides, the “effect of LCMT-1 overexpression on Compound 2-mediated cell death” value in [1] was “induced resistance to Compound 2-mediated cell death”. Moreover, the radiosensitization entry is listed as “did not demonstrate radiosensitization” with Jurkat cells and “demonstrated LCMT-li radiosensitization” in the data set with THP-1 cells. Besides, the cell cycle effect entry is given as “induced G0/G1 as well as G2/M phase arrest” in the data set with SCC-15 cells; “induced G2/M phase arrest” with SCC-25 cells (LCMT-li alone vs control cells); “increased G2/M phase arrest” in the data set on SCC-25 cells (LCMT-li/irradiation combination vs irradiation alone); “increased G2/M phase arrest” in the data set on UM-SCC-12 cells; “increased G0/G1 arrest; also recorded: decreased G2/M phase arrest” with UM-SCC-14a cells; “decreased G2/M phase arrest” in the data set on UM-SCC-49 cells. In addition, the cell cycle effect result in the data set on UM-SCC-69 cells (LCMT-li alone vs control cells) is on record as “induced G0/G1 arrest”; in the data set with UM-SCC-69 cells (combination vs irradiation alone), “decreased G2/M phase arrest”.
